Laboratory results as given in BigSolDB 2.1.

O=P(Oc1ccccc1)(Oc1ccccc1)N1CCN(P(=O)(Oc2ccccc2)Oc2ccccc2)CC1
solubility (mole fraction)
Conditions | in THF | in acetone | in benzene | in chloroform | in dichloromethane | in ethanol | in ethyl acetate | in methanol | in toluene
288.15 K | – | – | – | – | 0.00585 | – | – | – | –
293.15 K | 0.00109 | 0.000424 | 0.00268 | 0.0132 | 0.00725 | 0.000495 | 0.000826 | 3.28e-05 | 0.000506
298.15 K | 0.00143 | 0.000489 | 0.00319 | 0.0146 | 0.00878 | 0.000613 | 0.00103 | 5.77e-05 | 0.000616
303.15 K | 0.00183 | 0.000559 | 0.00385 | 0.0162 | 0.0106 | 0.000746 | 0.00122 | 9.84e-05 | 0.000782
308.15 K | 0.00236 | 0.000631 | 0.00458 | 0.0183 | 0.013 | 0.000946 | 0.00158 | 0.000156 | 0.000986
313.15 K | 0.00301 | 0.000717 | 0.00549 | 0.0202 | – | 0.00113 | 0.00194 | 0.000251 | 0.00124
318.15 K | 0.00375 | 0.000795 | 0.00632 | 0.0223 | – | 0.00134 | 0.00242 | 0.000415 | 0.00148
323.15 K | 0.00493 | 0.000901 | 0.00724 | 0.0245 | – | 0.00158 | 0.00301 | 0.000656 | 0.00178
328.15 K | 0.00605 | – | 0.00834 | – | – | 0.00186 | 0.0036 | – | 0.00213
333.15 K | 0.00766 | – | 0.00972 | – | – | 0.00221 | 0.00437 | – | 0.00251
338.15 K | – | – | 0.0112 | – | – | 0.00269 | 0.00521 | – | 0.00313
343.15 K | – | – | 0.0129 | – | – | 0.0032 | 0.00614 | – | 0.00371
